Assay [1] deals with adipocytes (3T3-L1) and myotubes (C2C12). Kind of assay: Fatty acid oxidation and dose-response screening, cell type not stated. The assay is classed as cell-based, mouse. The settings on record: leucine 0.5 mM, HMB 5 μM, resveratrol 200 nM, myo-inositol 100 nM; cell type not stated.
The subject of assay [2] is diet-induced obese mice. The assay can be described thus: Diet-induced obese mice fed resveratrol, HMB, leucine: weight, adiposity, fat oxidation, insulin sensitivity (Example 1). The assay is classed as in vivo, c57/BL6 mice. Particulars: for Weight: 6 weeks on high-fat diet; for Glucose / Insulin: plasma. As to the method: Six week old male c57/BL6 mice were fed a high-fat diet with fat increased to 45% of energy (Research Diets D12451) for 6 weeks to induce obesity.
The animals were housed in polypropylene cages at a room temperature of 22±2° C. and regime of 12 h light/dark cycle. The animals had free access to water and their experimental food throughout the experiment. At the of the treatment period (6 weeks) all animals were humanely euthanized, and blood and tissues collected for further experiments.
at the end of the obesity induction period (day 0 of treatment group) and at 2 weeks and 6 weeks of treatment, oxygen consumption and substrate utilization was measured via metabolic chambers using the Comprehensive Lab Animal Monitoring Systems (CLAMS, Columbus Instruments, Columbus, Ohio) in subgroups of each treatment group. Each animal was placed in individual cages without bedding that allow automated, non-invasive data collection. Each cage is an indirect open circuit calorimeter that provides measurement of oxygen consumption, carbon dioxide production, and concurrent measurement of food intake. All mice were acclimatized to the chambers for 24 hours prior to the experiment and maintained under the regular 12:12 light:dark cycle with free access to water and food. All experiments were started in the morning and data were collected for 24 hours. Each chamber was passed with 0.61 of air/min and was sampled for 2 min at 32-minute intervals. Exhaust O2 and CO2 content from each chamber was compared with ambient O2 and CO2 content. Food consumption was measured by electronic scales.
at the end of the treatment period (6 weeks of treatment) subgroups of each treatment diet group (5 animals/group, 35 animals total) were used to measure whole body glucose and palmitate uptake via PET/CT Imaging. To visualize these compounds using microPET imaging, the glucose or palmitate was labeled with fluorine-18 (108 mins half-life) or carbon-11 (20 mins half-life), respectively. Each mouse was fasted for 4 hours, then anesthetized using 1-3% isoflurane delivered by nose cone or in a mouse-sized induction chamber purpose-built for small animal imaging protocols. While under anesthesia the mice were injected iv with <2 mCi of each tracer, then be left for a period of time (minutes to up ˜1 hour) to allow the uptake of the tracer. During the scan, mice were kept warm using a thermostatically controlled heated bed and were treated with ophthalmic ointment prior to scanning Following the live scan the mice were returned to their cage and revived. Mice were monitored constantly during this time. Following live data acquisition the mice were sacrificed by isoflurane overdose and organs harvested for further experiments.

The target in assay [3] is T1, Sirt1 (Mus musculus, UniProt Q923E4).
T1 construct: endogenous in cells; host or cells: differentiated 3T3-L1 adipocytes and C2C12 myotubes (lysates)
T1 sequence (Q923E4 1-737): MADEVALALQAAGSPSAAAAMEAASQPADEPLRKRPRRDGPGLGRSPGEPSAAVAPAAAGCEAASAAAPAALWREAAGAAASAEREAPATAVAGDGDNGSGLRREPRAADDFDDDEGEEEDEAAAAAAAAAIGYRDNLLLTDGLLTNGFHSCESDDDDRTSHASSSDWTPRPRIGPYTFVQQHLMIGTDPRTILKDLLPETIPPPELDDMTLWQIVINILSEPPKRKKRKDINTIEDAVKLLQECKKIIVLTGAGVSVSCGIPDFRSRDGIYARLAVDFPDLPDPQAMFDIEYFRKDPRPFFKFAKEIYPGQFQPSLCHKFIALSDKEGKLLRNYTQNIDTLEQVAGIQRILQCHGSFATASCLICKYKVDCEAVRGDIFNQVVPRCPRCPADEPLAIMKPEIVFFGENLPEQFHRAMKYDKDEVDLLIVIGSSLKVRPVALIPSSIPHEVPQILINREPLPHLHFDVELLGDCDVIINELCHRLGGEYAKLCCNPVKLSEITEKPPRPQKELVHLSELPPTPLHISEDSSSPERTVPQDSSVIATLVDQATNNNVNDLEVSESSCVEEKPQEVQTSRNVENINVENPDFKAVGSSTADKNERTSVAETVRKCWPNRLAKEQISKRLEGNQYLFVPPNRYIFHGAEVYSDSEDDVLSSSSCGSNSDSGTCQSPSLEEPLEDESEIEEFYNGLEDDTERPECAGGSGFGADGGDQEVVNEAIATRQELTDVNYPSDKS
Kind of assay: Sirt1 activity (SIRT1 Fluorimetric Drug Discovery Kit) in treated cells. The settings on record: leucine 0.5 mM, HMB 5 μM, resveratrol 200 nM, alone or combined; cell type not stated. The format is cell-based. As to the method: SIRT1 activity was measured by using the SIRT1 Fluorimetric Drug Discovery Kit (BML-AK555, ENZO Life Sciences International, Inc. PA, USA). The assay measures SIRT1 activity by the degree of deacetylation of a standardized substrate containing an acetylated lysine side chain. The substrate utilized is a peptide containing amino acids 379-382 of human p53 (Arg-His-Lys-Lys[Ac]), an established target of SIRT1 activity; SIRT1 activity is directly proportional to the degree of deacetylation of Lys-382. Samples were incubated with peptide substrate (25 μM), and NAD^+ (500 μM) in a phosphate-buffered saline solution at 37° C. on a horizontal shaker for 45 minutes. […] Following 10 minutes incubation at 37° C., fluorescence was read in a plate-reading fluorometer (Synergy HT, BioTek Instruments, Winooski, Vt.) at an excitation wavelength of 360 nm and an emission wavelength of 450 nm. […]
Sirt1 activity was measured by using the Sirt1 Fluorimetric Drug Discovery Kit (BML-AK555, ENZO Life Sciences Inc., Farmingdale, N.Y., USA). […] Sirt1 activity was assessed by the degree of deacetylation of a standardized substrate containing an acetylated lysine side chain. […] Following 10 minutes incubation at 37° C., fluorescence was read in a plate-reading fluorimeter with excitation and emission wavelengths of 360 nm and 450 nm, respectively. […] Sirt1 activity was measured in a modified assay using 5 μl of cell lysate. […]

Marks after values point to notes of the source that are not given here.

For `Oc1ccc(/C=C/c2cc(O)cc(O)c2)cc1` [Resveratrol, 3,5,4′-Trihydroxy-trans-stilbene], the “increase in fatty acid oxidation” value in assay [1] is “no effect”. Besides, the Weight in assay [2] (High Resveratrol 225 mg/kg diet, or Low Resv 12.5 mg/kg + High HMB 10 g CaHMB/kg diet) is 38.7 ± 1.2^a g. Also, in assay [2] (low doses: resveratrol 12.5 mg/kg diet, CaHMB 2 g/kg diet, leucine 2.42% of diet), the Weight was 40.8 ± 2.5^a g. In addition, in assay [2] (high doses as E2), the “Fat oxidation (PET palmitate uptake; Muscle SUV)” value is on record as 2.29 ± 0.11^b SUV, the HOMAIR is listed as 0.59 ± 0.26^b, the “Heat Production” value is reported as 0.552 ± 0.015^b and the “Muscle Glucose Uptake (^18F-deoxyglucose SUV)” value is reported as 3.87 ± 0.32^a SUV. Besides, in assay [2] (high doses as E2), the “Visceral Adipose Volume” value was 6031 ± 323^a mm^3, the Weight gain is reported as 22.3 ± 2.4^a g, the Glucose is 5.14 ± 0.75^a mM and the Insulin is recorded as 10.1 ± 2.7^a μU/mL. For the same compound, in assay [2] (low doses as E1), the “Fat oxidation (PET palmitate uptake; Muscle SUV)” value was 1.51 ± 0.44^a SUV, the HOMAIR was 2.41 ± 0.66^a, the “Heat Production” value is 0.517 ± 0.014^a and the “Muscle Glucose Uptake (^18F-deoxyglucose SUV)” value is on record as 3.63 ± 1.29^a SUV. Besides, in assay [2] (low doses as E1), the “Visceral Adipose Volume” value was 6551 ± 575^a mm^3, the Weight gain is 20.9 ± 1.5^a g, the Glucose was 5.14 ± 0.85^a mM and the Insulin is 10.4 ± 1.6^a μU/mL. In assay [3], the “stimulation of Sirt1 activity” value is listed as “no effect”.

These data come from patent publication US20180235917A1, “COMPOSITIONS, METHODS AND KITS FOR TREATMENT OF DIABETES AND/OR […]” (NuSirt Sciences, Inc., priority 2014, published 2018).
